Test results from publication PMC12621175, “Scaffold Fusion and SAR Transfer with a Chemical Language Model Generates Novel Liver X Receptor Modulators” (Journal of Medicinal Chemistry, 2025).
Entries after “also recorded” stand apart in the source; their conditions may differ.

How the values were obtained:
Assay type in all cases: cell-based
RORα (NR1F1) = target: T1, RORα (NR1F1) (Homo sapiens, UniProt P35398); assay: Gal4-RORα hybrid reporter gene assay (off-target profiling)
T1 construct: coding for the hinge region, and LBD of the canonical isoform of the respective nuclear receptor; expressed in transfected cells; host or cells: HEK293T
T1 sequence (P35398 272-510 limits assumed): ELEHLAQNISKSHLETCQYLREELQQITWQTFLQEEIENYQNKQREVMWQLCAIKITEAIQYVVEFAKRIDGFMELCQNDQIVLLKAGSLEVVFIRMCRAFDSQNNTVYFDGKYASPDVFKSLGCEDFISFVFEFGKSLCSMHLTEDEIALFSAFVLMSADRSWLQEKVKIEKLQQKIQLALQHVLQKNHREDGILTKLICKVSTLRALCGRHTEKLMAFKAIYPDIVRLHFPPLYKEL
Text: (§1) For the hybrid reporter gene assays, the previously reported Gal4-fusion receptor plasmids pFA-CMV-hRORα-LBD, pFA-CMV-hRORβ-LBD, pFA-CMV-hRORγ-LBD, pFA-CMV-hLXRα-LBD, pFA-CMV-hLXRβ-LBD, pFA-CMV-hFXR-LBD, pFA-CMV-hPXR-LBD, and pFA-CMV-hRXRα-LBD, coding for the hinge region, and LBD of the canonical isoform of the respective nuclear receptor were used. pFR-Luc (Stratagene) was used as the reporter plasmid, and pRL-SV40 (Promega) was used in all assays for the normalization of transfection efficiency and cell growth. pECE-SV40-Gal4-VP16 was a gift from Lea Sistonen (Addgene plasmid #71728). The LXR-responsive reporter ABCA1-pGL3 was used for the full-length reporter gene assay.
(§2) The day before transfection, HEK293T cells were seeded in 96-well plates (4 × 10^4 cells/well). Before transfection, the medium was changed to Opti-MEM without any supplements. […] Luminescence was measured with a Spark 10 M luminometer (Tecan Deutschland GmbH). […] EC50/IC50 values and the standard errors thereof were calculated with the mean fold activation values by OriginPro, Version 2025 (OriginLab Corporation, Northampton, MA, USA), fitting a dose–response curve with a variable Hill slope (Levenberg–Marquardt algorithm). […]

RORγ (NR1F3) = target: T2, RORγ (NR1F3) (Homo sapiens, UniProt P51449); assay: Gal4-RORγ hybrid reporter gene assay (off-target profiling); conditions: compared with T0901317
T2 construct: coding for the hinge region, and LBD of the canonical isoform of the respective nuclear receptor; expressed in transfected cells; host or cells: HEK293T
T2 sequence (P51449 269-508 limits assumed): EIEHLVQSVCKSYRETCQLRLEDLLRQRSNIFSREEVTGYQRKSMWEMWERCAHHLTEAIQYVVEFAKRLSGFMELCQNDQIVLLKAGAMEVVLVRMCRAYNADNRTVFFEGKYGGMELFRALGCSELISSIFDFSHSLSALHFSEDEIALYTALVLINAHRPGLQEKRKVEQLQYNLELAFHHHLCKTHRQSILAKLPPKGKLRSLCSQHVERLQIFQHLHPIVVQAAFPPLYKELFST
Text: as §1, §2

FXR (NR1H4) = target: T3, FXR (NR1H4) (Homo sapiens, UniProt Q96RI1); assay: Gal4-FXR hybrid reporter gene assay (off-target profiling); conditions: compared with T0901317
T3 construct: coding for the hinge region, and LBD of the canonical isoform of the respective nuclear receptor; expressed in transfected cells; host or cells: HEK293T
T3 sequence (Q96RI1 262-486 limits assumed): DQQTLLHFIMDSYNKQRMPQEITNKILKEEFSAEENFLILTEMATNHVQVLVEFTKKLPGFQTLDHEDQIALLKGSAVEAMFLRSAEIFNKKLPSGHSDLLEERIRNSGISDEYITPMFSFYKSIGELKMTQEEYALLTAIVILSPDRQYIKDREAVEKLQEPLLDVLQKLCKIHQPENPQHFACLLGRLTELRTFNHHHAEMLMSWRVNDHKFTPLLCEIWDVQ
Text: as §1, §2

PXR (NR1I2) = target: T4, PXR (NR1I2) (Homo sapiens, UniProt O75469); assay: Gal4-PXR hybrid reporter gene assay (off-target profiling); conditions: compared with T0901317
T4 construct: coding for the hinge region, and LBD of the canonical isoform of the respective nuclear receptor; expressed in transfected cells; host or cells: HEK293T
T4 sequence (O75469 146-433 limits assumed): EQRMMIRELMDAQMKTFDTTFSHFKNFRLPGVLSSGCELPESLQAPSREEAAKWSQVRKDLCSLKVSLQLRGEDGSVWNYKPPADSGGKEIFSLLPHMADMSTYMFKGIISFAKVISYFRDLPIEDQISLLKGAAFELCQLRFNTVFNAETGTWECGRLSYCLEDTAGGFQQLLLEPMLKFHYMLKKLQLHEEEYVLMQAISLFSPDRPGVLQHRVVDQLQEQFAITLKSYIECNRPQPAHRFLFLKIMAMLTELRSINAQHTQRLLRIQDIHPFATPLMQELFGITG
Text: as §1, §2

HepG2 cells = assay: lipolysis assay after steatosis induction with oleic and palmitic acid (Oil Red O); conditions: 30 μM, 72 h; HepG2 pretreated 24 h with oleic acid (66.7 μM) and palmitic acid (33.3 μM)
Method: HepG2 cells were seeded in collagen-coated 96-well plates at a density of 10^4 cells per well and incubated for 24 h. For the lipolytic mode, the cells were pretreated for additional 24 h with 66.7 μM oleic acid and 33.3 μM palmitic acid in culture medium with 1% bovine serum albumin (BSA). The cells were then treated with DMSO (0.1%) alone or in combination with test compounds in the culture medium. After 72 h, the cells were washed with PBS (2 × 50 μL) and fixed with 10% formalin solution (50 μL) for 15 min. After removal of the fixative, the cells were washed with H2O (2 × 50 μL), followed by 50 μL of 60% iPrOH and incubated with 50 μL Oil Red O solution (0.3% in 60% iPrOH) for 10 min to stain neutral lipids. The cells were washed quickly with 50 μL of 60% iPrOH and 2 × 50 μL of PBS. Microscopic images were taken using a 40x objective on a BZ-X810 microscope (KEYENCE, Frankfurt, Germany). Images were analyzed using ImageJ software (v1.54) according to a literature method.

Structure (SMILES)	RORα activity (RORα (NR1F1); off-target profiling, compared with T0901317)	RORγ activity (RORγ (NR1F3))	FXR activity (FXR (NR1H4))	PXR activity (PXR (NR1I2))	RORα activity (RORα (NR1F1); 30 μM)	lipolytic, antisteatotic activity (HepG2 cells)
CCN(C(=O)c1ccccc1)c1ccc(C(O)(C(F)(F)F)C(F)(F)F)cc1 [Compound 1, N-Ethyl-N-(4-[1,1,1,3,3,3-hexafluoro-2-hydroxypropan-2-yl]phenyl)benzamide]	no activity; also recorded: did not affect	reduced activity; also recorded: weaker inverse RORγ agonist	no activity; also recorded: did not affect	reduced activity; also recorded: PXR agonism was retained		
CS(=O)(=O)c1cccc(-c2ccc(CN(Cc3cccc(C(F)(F)F)c3Cl)CC(c3ccccc3)c3ccccc3)cc2)c1 [Compound 3, N-(2-Chloro-3-[trifluoromethyl]benzyl)-N-([3′-{methylsulfonyl}-{1,1′-biphenyl}-4-yl]methyl)-2,2-diphenylethan-1-amine]					only activated RORα with low efficacy; also recorded: weak RORα activation	displayed lipolytic, antisteatotic activity; also recorded: stimulated lipolysis
